According to PubChem BioAssay AID248 (DTP/NCI, 2004):
Where “and” joins values, the source holds several entries; their conditions need not be identical. Equal entries are not always repeated. Inconclusive results and toxic doses are left out. Cut-off read from the data, not from the text of the source: active = T/C of 150% or more; inactive = T/C below 125%.

Test system: L1210 leukemia ip in BDF1 mice, survival T/C
Test: NCI In Vivo Anticancer Drug Screen. Data for tumor model L1210 Leukemia (intraperitoneal) in B6D2F1 (BDF1) mice
Details: endpoint: mean survival time, higher = longer survival
Method in brief: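 In this screen, tumor-bearing mice given compound are compared to those given vehicle, and their survival values are reported as a treated-to-control quotient.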

[1] = dose: 100.0 mg/kg/injection, schedule: Q04DX002 (ip), vehicle: saline with Tween-80
[2] = dose: 12.5 mg/kg/injection, schedule: Q04DX003 (ip), vehicle: saline
[3] = dose: 25.0 mg/kg/injection, schedule: Q04DX003 (ip), vehicle: saline
[4] = dose: 25.0 mg/kg/injection, schedule: Q04DX002 (ip), vehicle: saline with Tween-80
[5] = dose: 50.0 mg/kg/injection, schedule: Q04DX002 (ip), vehicle: saline with Tween-80
[6] = dose: 25.0 mg/kg/injection, schedule: Q01DX009 (ip), vehicle: saline with Tween-80
[7] = dose: 50.0 mg/kg/injection, schedule: Q01DX009 (ip), vehicle: saline with Tween-80
[8] = dose: 100.0 mg/kg/injection, schedule: Q04DX002 (ip), vehicle: Klucel (hydroxypropylcellulose) (HPC)
[9] = dose: 200.0 mg/kg/injection, schedule: Q04DX002 (ip), vehicle: Klucel (hydroxypropylcellulose) (HPC)
[10] = dose: 400.0 mg/kg/injection, schedule: Q04DX002 (ip), vehicle: Klucel (hydroxypropylcellulose) (HPC)
[11] = dose: 100.0 mg/kg/injection, schedule: Q01DX009 (ip), vehicle: saline with Tween-80
[12] = dose: 200.0 mg/kg/injection, schedule: Q01DX009 (ip), vehicle: saline with Tween-80
[13] = dose: 400.0 mg/kg/injection, schedule: Q01DX009 (ip), vehicle: saline with Tween-80
[14] = dose: 100.0 mg/kg/injection, schedule: Q04DX003 (ip), vehicle: saline with Tween-80
[15] = dose: 100.0 mg/kg/injection, schedule: Q01DX009 (ip), vehicle: Klucel (hydroxypropylcellulose) (HPC)
[16] = dose: 75.0 mg/kg/injection, schedule: Q04DX003 (ip), vehicle: saline

Measured: T/C

CCCC[P+](CC(C)(C)c1ccc(C)cc1)(c1ccccc1)c1ccccc1
inactive: dose: 1.56 mg/kg/injection, schedule: Q04DX002 (ip), vehicle: saline 96 % of control | dose: 3.13 mg/kg/injection, schedule: Q04DX002 (ip), vehicle: saline 104 % of control | dose: 6.25 mg/kg/injection, schedule: Q04DX002 (ip), vehicle: saline 100 % of control | dose: 12.5 mg/kg/injection, schedule: Q04DX002 (ip), vehicle: saline 96 % of control | [1] 103 % of control

CCCCN(C)N=Nc1ccc(CCC(=O)NN)cc1
inactive: dose: 33.0 mg/kg/injection, schedule: Q01DX009 (ip), vehicle: carboxymethylcellulose (CMC) 107 % of control | dose: 50.0 mg/kg/injection, schedule: Q01DX009 (ip), vehicle: carboxymethylcellulose (CMC) 101 % of control

CC(=O)OC1CCC2(C)C(CCC3C4CCC(C(C)CC(=O)O)C4CCC32)C1 (stereo not drawn)
inactive: dose: 100.0 mg/kg/injection, schedule: Q04DX003 (sc), vehicle: steriod suspending solution 106 % of control | dose: 200.0 mg/kg/injection, schedule: Q04DX003 (sc), vehicle: steriod suspending solution 106 % of control | dose: 400.0 mg/kg/injection, schedule: Q04DX003 (sc), vehicle: steriod suspending solution 111 % of control

CCCCN(CC)CC#N
inactive: dose: 6.25 mg/kg/injection, schedule: Q01DX009 (ip), vehicle: saline 104 % of control | dose: 12.5 mg/kg/injection, schedule: Q01DX009 (ip), vehicle: saline 101 % of control | [2] 94 % of control | dose: 25.0 mg/kg/injection, schedule: Q01DX009 (ip), vehicle: saline 93 % of control | [3] 89 % of control

CCN(CC)CN(CC)CC
inactive: [4] 103 % of control | [5] 100 % of control | [1] 98 % of control and 103 % of control

CCC(C)N=[N+]([O-])CC (stereo not drawn)
inactive: dose: 100.0 mg/kg/injection, schedule: Q01DX001 (ip), vehicle: acetone 101 % of control | dose: 200.0 mg/kg/injection, schedule: Q01DX001 (ip), vehicle: acetone 112 % of control | dose: 400.0 mg/kg/injection, schedule: Q01DX001 (ip), vehicle: acetone 91 % of control

CC1=CC(=O)C(C(=O)CC(O)(C(F)(F)F)C(F)(F)F)C(=O)O1 (stereo not drawn)
inactive: dose: 12.5 mg/kg/injection, schedule: Q01DX009 (ip), vehicle: saline with Tween-80 92 % of control | [6] 103 % of control | [7] 88 % of control

Cc1c(C)c(C)c(CNNC(=S)Nc2ccc(S(=O)(=O)N3CCCCC3)cc2)c(C)c1C
inactive: [8] 104 % of control | [9] 92 % of control | [10] 95 % of control

CC(=O)C1CCC2C3=CC=C4CC(OC(=O)C5CCCCC5)CCC4(C)C3=CCC12C (stereo not drawn)
inactive: [11] 100 % of control | [12] 89 % of control | [13] 108 % of control

CCCCCCCCCCCCCCCCNCCCN
inactive: [14] 98 % of control | dose: 200.0 mg/kg/injection, schedule: Q04DX003 (ip), vehicle: saline with Tween-80 96 % of control

O=C(c1ccccc1)C(Cl)c1ccccc1 (stereo not drawn)
inactive: dose: 25.0 mg/kg/injection, schedule: Q01DX009 (ip), vehicle: Klucel (hydroxypropylcellulose) (HPC) 105 % of control | dose: 50.0 mg/kg/injection, schedule: Q01DX009 (ip), vehicle: Klucel (hydroxypropylcellulose) (HPC) 111 % of control | [15] 107 % of control

N#C/C(=C\C1C(Cl)CCCC1Cl)C1CCC([N+](=O)[O-])CC1 (stereo not drawn)
inactive: [1] 101 % of control | dose: 200.0 mg/kg/injection, schedule: Q04DX002 (ip), vehicle: saline with Tween-80 97 % of control | dose: 400.0 mg/kg/injection, schedule: Q04DX002 (ip), vehicle: saline with Tween-80 101 % of control

CCCCC(C)C(C#N)(NC(C)=O)C(=O)OCC (stereo not drawn)
inactive: [16] 109 % of control | dose: 150.0 mg/kg/injection, schedule: Q04DX003 (ip), vehicle: saline 98 % of control | dose: 300.0 mg/kg/injection, schedule: Q04DX003 (ip), vehicle: saline 91 % of control

O=c1[nH]c(=O)c2ccccc2o1
inactive: dose: 2.5 mg/kg/injection, schedule: Q04DX003 (ip), vehicle: saline 100 % of control | dose: 5.0 mg/kg/injection, schedule: Q04DX003 (ip), vehicle: saline 105 % of control | dose: 10.0 mg/kg/injection, schedule: Q04DX003 (ip), vehicle: saline 100 % of control | [11] 105 % of control

O=C(Oc1cccc(O)c1)c1ccccc1
inactive: [15] 100 % of control | dose: 200.0 mg/kg/injection, schedule: Q01DX009 (ip), vehicle: Klucel (hydroxypropylcellulose) (HPC) 102 % of control | dose: 400.0 mg/kg/injection, schedule: Q01DX009 (ip), vehicle: Klucel (hydroxypropylcellulose) (HPC) 94 % of control

COc1cc(C2NC(=S)NC2=S)ccc1O (stereo not drawn)
inactive: [6] 104 % of control | dose: 25.0 mg/kg/injection, schedule: Q04DX003 (ip), vehicle: saline with Tween-80 94 % of control | [7] 96 % of control | dose: 50.0 mg/kg/injection, schedule: Q04DX003 (ip), vehicle: saline with Tween-80 92 % of control | [14] 94 % of control and 98 % of control

CC(=O)Oc1ccccc1C1SCSCS1
inactive: dose: 100.0 mg/kg/injection, schedule: Q01DX001 (ip), vehicle: Klucel (hydroxypropylcellulose) (HPC) 100 % of control | dose: 200.0 mg/kg/injection, schedule: Q01DX001 (ip), vehicle: Klucel (hydroxypropylcellulose) (HPC) 100 % of control | dose: 400.0 mg/kg/injection, schedule: Q01DX001 (ip), vehicle: Klucel (hydroxypropylcellulose) (HPC) 94 % of control

CCOC(=O)/C=C/SCCCC(=O)O
inactive: [11] 96 % of control | [12] 88 % of control

CCCC1(CN2c3ccccc3Sc3ccccc32)CCN(CC)C1 (stereo not drawn)
inactive: dose: 9.37 mg/kg/injection, schedule: Q01DX009 (ip), vehicle: saline 101 % of control | dose: 12.5 mg/kg/injection, schedule: Q01DX001 (ip), vehicle: saline 97 % of control and 100 % of control | [2] 103 % of control | dose: 18.75 mg/kg/injection, schedule: Q01DX009 (ip), vehicle: saline 95 % of control | dose: 25.0 mg/kg/injection, schedule: Q01DX001 (ip), vehicle: saline 95 % of control | [3] 103 % of control | dose: 37.5 mg/kg/injection, schedule: Q01DX009 (ip), vehicle: saline 92 % of control | dose: 50.0 mg/kg/injection, schedule: Q01DX001 (ip), vehicle: saline 95 % of control and 87 % of control | dose: 50.0 mg/kg/injection, schedule: Q04DX003 (ip), vehicle: saline 97 % of control | [16] 103 % of control

O=C(O)/C(Cc1cn[nH]n1)=N\O
inactive: dose: 100.0 mg/kg/injection, schedule: Q01DX001 (ip), vehicle: other 95 % of control | dose: 200.0 mg/kg/injection, schedule: Q01DX001 (ip), vehicle: other 101 % of control | dose: 400.0 mg/kg/injection, schedule: Q01DX001 (ip), vehicle: other 101 % of control

O=[N+]([O-])c1ccccc1S/N=C/c1ccccc1O
inactive: [8] 94 % of control | [9] 94 % of control | [10] 105 % of control

O=C1C=C(c2ccccc2)C(O)(c2ccccc2)/C1=C/c1ccccc1 (stereo not drawn)
inactive: dose: 6.25 mg/kg/injection, schedule: Q04DX002 (ip), vehicle: saline with Tween-80 100 % of control | dose: 12.5 mg/kg/injection, schedule: Q04DX002 (ip), vehicle: saline with Tween-80 92 % of control | [4] 92 % of control

O=S1C(c2ccccc2)CC1c1ccccc1 (stereo not drawn)
inactive: dose: 100.0 mg/kg/injection, schedule: Q04DX003 (ip), vehicle: Klucel (hydroxypropylcellulose) (HPC) 100 % of control | dose: 200.0 mg/kg/injection, schedule: Q04DX003 (ip), vehicle: Klucel (hydroxypropylcellulose) (HPC) 105 % of control | dose: 400.0 mg/kg/injection, schedule: Q04DX003 (ip), vehicle: Klucel (hydroxypropylcellulose) (HPC) 96 % of control

CCCCSP(=O)(SCCCC)N1CCCCC1
inactive: [4] 108 % of control | [5] 89 % of control | [1] 101 % of control

Cc1cc(C)c(NC(=O)c2ccccc2Cl)c(C)c1
inactive: [11] 93 % of control | [12] 93 % of control | [13] 97 % of control

COC(=O)c1ccccc1NS(=O)(=O)c1ccc(Cl)cc1
inactive: [8] 94 % of control | [10] 110 % of control
